Data reported in US20210260225A1, “PROTECTION OF BIOLOGICALLY ACTIVE MOLECULES DURING RADIATION STERILIZATION” (Qiagen Sciences LLC, priority 2018, published 2021).

Columns and labels:
[1] = test system: whole blood samples; experiment: Mitogenic potency of spray-dried PHA in QuantiFERON Mitogen Control blood collection tubes after radiation sterilization (IFN-γ by QuantiFERON ELISA); format: cell-based, human; settings: for PHA mitogenic response, % of control (FIG. 2): control: no radioprotectant, no sterilization, 8 donors
[2] = test system: whole blood samples; experiment: Mitogenic activity of PHA-P formulation with radioprotectant additives, with or without E-Beam (IFN-γ secretion, QuantiFERON ELISA); format: cell-based, human; settings: for Group Mean Percentage of Mitogenic Activity: additive 5.0 mM, vs untreated control without additives; for Group Mean Percentage of Mitogenic Activity / Concentration-dependent protection of PHA-P mitogenic activity (FIG. 1) / PHA-P Formulation Potency with Additives: 6 donors; for Concentration-dependent protection of PHA-P mitogenic activity (FIG. 1): E-beam 25 kGy in solution, cysteine 1.0-50 mM, melatonin 0.2-10 mM; for PHA mitogenic activity, % of PHA control formulation (FIG. 1): E-Beam 25 kGy, control without additive and without sterilization; for PHA-P Formulation Potency with Additives: no irradiation, vs same formulation without additives (100%)
Procedure: Cysteine (closed circles) and melatonin (open circles) were dissolved in the same PHA-P formulation to various final concentrations. The mitogenic activities were determined by measuring IFN-γ secretion in whole blood samples from six blood donors using QuantiFERON® ELISA according to the manufacturer's instructions (QIAGEN, Inc., Germantown, Md.). Group mean percentages of mitogenic activity over controls (PHA-P alone without any additives) are presented.
L-cysteine was dissolved in a PHA-P formulation to 1.0-50 mM. Due to its lower water solubility, melatonin stock solution at 200 mM was first prepared in 100% ethyl alcohol. The stocks were then added into the PHA-P formulation to make final concentrations from 0.2-10 mM. After the E-Beam treatment, potencies of PHA-P formulations were tested with whole blood samples and mitogenic activity was determined using QuantiFERON® ELISA (QIAGEN, Inc., Germantown, Md.) according to the manufacturer's instructions.

[3] = test system: whole blood samples; experiment: as above; format: cell-based, human; settings: E-Beam 0.0 kGy; additive 5.0 mM; vs untreated control without additives; 6 donors
[4] = test system: T-cells present in a whole human blood sample; experiment: Anti-CD3 antibody T-cell stimulatory activity after E-beam irradiation (IFN-γ secretion in whole blood, ELISA); format: cell-based; settings: for Protection of anti-CD3 antibody stimulatory activity against E-beam (FIG. 4): 10 mM Cys or 3.0 mM G-SH in DPBS, E-beam doses up to 25 kGy; for Protective effect on anti-CD3 activity, titration of radioprotectant (FIG. 5): 25 kGy E-beam, radioprotectant 1.0 to 10 mM
Procedure: Anti-CD3 antibody samples were dissolved in Dulbecco's phosphate-buffered saline (DPBS) and diluted to a concentration of 66.7 μg/mL, then exposed to various doses of E-beam irradiation in the presence or absence of 10 mM cysteine (Cys) or 3 mM glutathione (G-SH). The treated antibody samples were tested for their T-cell stimulatory activity by determining their ability to induce interferon-gamma (IFNγ) secretion by T-cells present in a whole human blood sample obtained from a group of six randomly selected donors, using 0.10 μg of anti-CD3 antibody per mL of whole blood in QuantiFERON® (QFN) Nil tubes (QIAGEN, Inc., Germantown, Md.). Following the incubation of the whole blood samples with the anti-CD3 antibody in the QFN Nil tubes, blood processing, plasma harvesting and IFN-γ detection by enzyme-linked immunosorbent assay (ELISA) were performed according to the manufacturer's instructions as found in the QuantiFERON®-TB Gold Plus package insert (QFN-TB Gold Plus, QIAGEN, Inc., Germantown, Md.) except that the plasma samples were diluted 1 to 10 in ELISA kit Green Diluent immediately before testing on 8-point standard curves.

[5] = test system: white blood cells present in human whole blood samples; experiment: Concanavalin A activity after E-beam irradiation (IFN-γ release in whole blood, ELISA); format: cell-based; settings: for Protection of ConA stimulatory activity against E-beam (FIG. 12): 10 mM Cys or 3.0 mM G-SH, E-beam irradiated; for Protective effect on ConA activity, titration of radioprotectant (FIG. 13): 25 kGy E-beam, radioprotectant 1.0 to 10 mM
[6] = test system: white blood cells present in human whole blood samples; experiment: QFM (anti-CD3 + R848) stimulatory activity after E-beam irradiation (IFN-γ release in whole blood, ELISA); format: cell-based; settings: for Protection of stimulatory activities of anti-CD3 and R848 against E-beam (FIG. 8): 10 mM Cys or 3.0 mM G-SH, E-beam irradiated; for Protective effect on combined anti-CD3 and R848 activity, titration of radioprotectant (FIG. 9): 25 kGy E-beam, radioprotectant 1.0 to 10 mM
Procedure: (§1) Following incubation with the QFM samples in the QFN tubes, whole blood sample processing, plasma harvesting and IFN-γ ELISA were performed according to the QuantiFERON®-TB Gold Plus package insert (QFN-TB Gold Plus, QIAGEN, Inc., Germantown, Md.) except that the plasma samples were diluted 1:10 in ELISA kit Green Diluent immediately before testing on 8-point standard curves.

[7] = test system: white blood cells present in human whole blood samples; experiment: Pokeweed mitogen activity after E-beam irradiation (IFN-γ release in whole blood, ELISA); format: cell-based; settings: for Protection of PWM stimulatory activity against E-beam (FIG. 10): 10 mM Cys or 3.0 mM G-SH, E-beam irradiated; for Protective effect on PWM activity, titration of radioprotectant (FIG. 11): 25 kGy E-beam, radioprotectant 1.0 to 10 mM
Procedure: Pokeweed Mitogen (PWM) samples were dissolved in DPBS at a concentration of 33.3 μg/mL and treated with various doses of E-beam irradiation in the presence or absence of 10 mM cysteine (Cys) or 3 mM glutathione (G-SH). The treated PWM samples were tested for their biological activity (ability to elicit IFNγ release during an in vitro incubation) on white blood cells present in human whole blood samples, collected from a group of six randomly selected donors, using 1.0 μg of PWM per mL of whole blood in QFN Nil tubes. Following incubation with the PWM samples in the QFN tubes, whole blood sample processing, plasma harvesting and IFN-γ ELISA were performed according to the QuantiFERON®-TB Gold Plus package insert (QFN-TB Gold Plus, QIAGEN, Inc., Germantown, Md.) except that the plasma samples were diluted 1:10 in ELISA kit Green Diluent immediately before testing on 8-point standard curves.

[8] = test system: white blood cells present in human whole blood samples; experiment: R848 TLR agonist (NK cell stimulatory) activity after E-beam irradiation (IFN-γ release in whole blood, ELISA); format: cell-based; settings: for Protection of R848 stimulatory activity against E-beam (FIG. 6): 10 mM Cys or 3.0 mM G-SH, E-beam treated; for Protective effect on R848 activity, titration of radioprotectant (FIG. 7): 25 kGy E-beam, radioprotectant 1.0 to 10 mM
Procedure: as §1, with “R848 (resiquimod, CAS 144875-48-9) is a toll-like receptor (TLR) agonist which can stimulate biological responses by natural killer (NK) cells, and its activity can be measured in the […] tubes (QIAGEN, Inc., Germantown, Md.) QFN whole blood culture system. […] Following” for “Following”, “R848” for “QFM”

[9] = test system: whole blood samples; experiment: Storage stability of mitogenic activity of radiation sterilized spray-dried PHA tubes with or without cysteine; format: cell-based, human; settings: 5.0 mM cysteine; E-Beam sterilized; subsequent time points extending beyond eight months post-production
Procedure: QuantiFERON® Mitogen Control blood collection tubes were produced with and without cysteine (5.0 mM final concentration in liquid mitogen formulation) and sterilized with E-Beam radiation. Mitogen tubes' biological (mitogenic) activities were tested over time and are presented as % potency differences of the activity of mitogen tubes formulated with cysteine compared to mitogen tubes formulated without cysteine. Each dot in the figure represents the % activity of group mean at each time point.
Mitogen (spray-dried PHA) tubes were produced and radiation sterilized as described in Example 1, comparing PHA preparations without added cysteine to PHA preparations containing 5.0 mM cysteine. The long-term storage stability of the radioprotective effect of cysteine on the mitogenic activity of spray-dried PHA was also assessed.
Following spray-drying and radiation sterilization the tubes were held for various time periods before being tested for mitogenic activity as described previously.

[10] = spray-dried tubes after radiation sterilization, cysteine 5 mM where present

Molecule	PHA mitogenic response, % of control (FIG. 2) [1, 10]	Group Mean Percentage of Mitogenic Activity ([2]; E-Beam 8.30 kGy)	Group Mean Percentage of Mitogenic Activity ([2]; E-Beam 16.7 kGy)	Group Mean Percentage of Mitogenic Activity ([2]; E-Beam 25.0 kGy)	Group Mean Percentage of Mitogenic Activity [3]	Protection of anti-CD3 antibody stimulatory activity against E-beam (FIG. 4) [4]	Protective effect on anti-CD3 activity, titration of radioprotectant (FIG. 5) [4]	Protection of ConA stimulatory activity against E-beam (FIG. 12) [5]	Protective effect on ConA activity, titration of radioprotectant (FIG. 13) [5]	Protection of stimulatory activities of anti-CD3 and R848 against E-beam (FIG. 8) [6]	Protective effect on combined anti-CD3 and R848 activity, titration of radioprotectant (FIG. 9) [6]	Protection of PWM stimulatory activity against E-beam (FIG. 10) [7]	Protective effect on PWM activity, titration of radioprotectant (FIG. 11) [7]	Protection of R848 stimulatory activity against E-beam (FIG. 6) [8]	Protective effect on R848 activity, titration of radioprotectant (FIG. 7) [8]	Concentration-dependent protection of PHA-P mitogenic activity (FIG. 1) [2]	other results
phytohemagglutinin [PHA]	56%	–	–	–	–	–	–	–	–	–	–	–	–	–	–	–	Mitogenic Potency after Tx, E-Beam ([1]; E-beam 16.6-30 kGy, group mean of 11 donors vs same lot of tubes without treatment (100%)): about 55%
N[C@@H](CCC(=O)N[C@@H](CS)C(=O)NCC(=O)O)C(=O)O [Glutathione Reduced, γ-L-Glutamyl-L-cysteinylglycine]	–	53%	23%	10%	116%	maintained stimulatory activities	dose-dependent increase	preserved	dose-dependent increase	preserved	dose-dependent increase	preserved	dose-dependent increase	retained the stimulatory activities	dose-dependent increase	–	Group Mean Percentage of Mitogenic Activity ([2]; E-Beam 8.30 kGy, listed as reduced glutathione): 53%
N[C@@H](CS)C(=O)O [L-Cysteine, 2-amino-3-sulfhydrylpropanoic acid]	72%	68%	43%	26%	99%	–	–	–	–	–	–	–	–	–	–	dose dependent protection	Mitogenic activity of tubes with cysteine compared to tubes without cysteine (FIG. 3) [9]: retained relatively higher levels of mitogenic activity; Group Mean Percentage of Mitogenic Activity ([2]; E-Beam 8.30 kGy, listed as L-cysteine): 68%; PHA mitogenic activity, % of PHA control formulation (FIG. 1) ([2]; additive 1.0 mM): 5.9%; PHA mitogenic activity, % of PHA control formulation (FIG. 1) ([2]; additive 10 mM): 38%; PHA-P Formulation Potency with Additives ([2]; additive 50 mM): 101%; PHA-P Formulation Potency with Additives ([2]; additive 50 mM, listed as cysteine): comparable to unsupplemented PHA preparations; PHA mitogenic response, % of control (FIG. 2) ([1]; spray-dried tubes, cysteine 5 mM, no radiation sterilization): 94.8%
COc1ccc2[nH]cc(CCNC(C)=O)c2c1 [Melatonin, N-acetyl-5-methoxy tryptamine, reference compound]	–	53%	26%	7.7%	111%	–	–	–	–	–	–	–	–	–	–	dose dependent protection	Group Mean Percentage of Mitogenic Activity ([2]; E-Beam 8.30 kGy, listed as melatonin): 53%; PHA-P Formulation Potency with Additives ([2]; additive 10 mM): 98.6%; PHA-P Formulation Potency with Additives ([2]; additive 10 mM, listed as melatonin): comparable to unsupplemented PHA preparations
N[C@@H](CS)C(=O)O (stereo in doubt) [L-Cysteine, 2-amino-3-sulfhydrylpropanoic acid]	–	–	–	–	–	maintained stimulatory activities	dose-dependent increase	preserved	dose-dependent increase	preserved	dose-dependent increase	preserved	dose-dependent increase	retained the stimulatory activities	dose-dependent increase	–	–
